Columns and labels:
[1] = test system: allergic inflammation of the lungs in ovalbumin-sensitized mice; test: Ovalbumin-sensitized mouse asthma model, BAL cell counts; type: in vivo, Balb/c mice; conditions: Mus musculus, 72 h; intra-nasal 0.5 to 4 mg/kg/d for 3 days, n=8; read-out: ED50, cellular inflammation in the lungs (BAL cells)
Method: Groups of Balb/c mice were sensitized by intra-peritoneal injection of 20 μg OVA protein (chicken egg albumin; Sigma-Aldrich) emulsified in 2 mg aluminum hydroxide in PBS. After 4 weeks, challenge doses of 1.5%/50 μl OVA were administered intranasally. The challenge was performed daily for 3 consecutive days and then the mice assessed for allergic inflammation of the lungs 24 h after the last aerosol exposure. Groups of mice were treated with various concentrations of DMPP during the challenge period. Broncho-alveolar lavage (BAL) was performed and the fluid centrifuged at 400 g to separate cells from liquid.
Ovalbumin-sensitized mice (n=8) were challenged with the allergen and simultaneously treated intra-nasally with increasing concentrations of ASM-002 (0.5 to 4 mg/kg/d) for 3 days. The number of cells recovered by broncho-alveolar lavage was used as a measure of lung inflammation.

[2] = test system: lung resistance after metacholine challenge; test: Airway hyper-reactivity / lung resistance to metacholine in asthmatic mice (FlexiVENT); type: in vivo; conditions: ASM-002 4 mg/kg intra-nasal 3 days and 10 minutes prior to challenge; Salbutamol 10 minutes before
Method: Airway hyper-reactivity (AHR) in response to metacholine was measured in anesthetized, tracheotomized, ventilated mice using a computer-controlled ventilator (FlexiVENT™).
Increasing doses of metacholine (0 mg/kg-32.5 mg/kg) were administered through the jugular vein.
Lung response to a broncho-constrictive agent, metacholine, was measured by a Flexi-vent® apparatus. Ovalbumin-sensitized animals were treated intra-nasally with ASM-002 (4 mg/kg) during 3 days and 10 minutes prior to the metacholine challenge and compared to untreated OVA-sensitized animals. A negative control group of un-sensitized animals and a positive control group that received Salbutamol (Ventolin) 10 minutes before the metacholine challenge were also included.

[3] = test system: TNF release by human blood monocytes; test: cells; type: cell-based
Method: Human monocytes were isolated from the blood of asthmatic patients by Ficoll-paque density gradient, let to adhere to tissue culture plates and stimulated with LPS (100 ng/ml) for 18 hours at 37° C. with or without increasing concentrations of nicotine. The release of TNF, a potent pro-inflammatory mediator, was measured in the cell culture supernatant by the ELISA method. Results are expressed as a percentage release from LPS-stimulated untreated cells (FIG. 28).
Tumor necrosis factor (TNF) is a mediator released in inflammatory states.
Human blood monocytes were isolated by Ficoll-paque density gradient, let to adhere to tissue culture plates and stimulated with LPS (100 ng/ml) for 18 hours at 37° C. with or without increasing concentrations of nicotine analogues.

[4] = test system: LTC4 release by blood eosinophils; test: LTC4 production by PAF-stimulated blood eosinophils (enzyme immunoassay); type: cell-based, human
Method: Blood eosinophils, the most increased inflammatory cells in asthma, were isolated by negative selection using bead-conjugated anti-CD16 monoclonal antibody and magnetic activating cell sorting. Cells were pre-Incubated for 18 hours with the various DMPP analogs and then stimulated with 1 µM platelet-activating factor (PAF) to produce LTC4 which was measured by enzyme immunoassay.
Human blood eosinophils were isolated from blood of asthmatic patients, stimulated in vitro with platelet activating factor (PAF) to produce large amounts of LTC4, and treated or not with 80 μM ASM-002.

[5] = test system: mouse tracheal airway smooth muscle; test: Isometric study on isolated mouse tracheas pre-contracted with metacholine; conditions: cumulative doses, p=0.002
Method: Tracheal rings were mounted isometrically to force transducers in organ baths containing Krebs bicarbonate solution at 37° C. and bubbled with 95% O2-5% CO2, pre-contracted with submaximal concentration of metacholine (10^−5) and cumulative doses of the analogs were added to the baths. Changes of tension are recorded. Results are expressed as a percentage of maximal contraction (FIG. 29).
(§1) As described previously, tracheal or bronchial rings were mounted isometrically to force transducers in organ baths containing Krebs bicarbonate solution at 37° C. and bubbled with 95% O2-5% CO2, pre-contracted with submaximal concentration of metacholine cumulative doses of ASM-002 added. Changes of tension are recorded. Results are expressed as a percentage of maximal contraction for mouse (FIG. 34, p=0.002), dog (FIG. 35, p=0.004) and human (FIG. 36)

[6] = test system: dog bronchial rings; test: Isometric study on dog bronchial rings pre-contracted with metacholine; conditions: cumulative doses, p=0.004
Method: as §1

[7] = test system: human bronchial rings; test: Isometric study on human bronchial rings pre-contracted with metacholine; conditions: cumulative doses
Method: as §1

[8] = test system: lung inflammation in dogs sensitized to Ascaris suum; test: Dog asthma model (Ascaris suum), cellular inflammation in bronchoalveolar lavages; type: in vivo; conditions: ASM-002 8 mg/kg (4 mg/kg 2× day in the food); prednisone 1 mg/kg 1× day; n=12
Method: (§2) In this model 12 dogs naturally sensitized to the roundworm Ascaris suum were used in a cross-over study design. Four groups of 3 dogs were randomly formed, exposed to the allergen, and each animal was left either untreated or received alternatively, ASM-002 (4 mg/kg 2× day in the food), or prednisone (1 mg/kg 1× day in the food), the most commonly used corticosteroid drug used to treat inflammation in asthma.
Cellular inflammation was evaluated in the bronchoalveolar lavages.

[9] = test system: lung resistance in hyperresponsive dogs; test: Dog model of lung hyper-responsiveness to metacholine; type: in vivo; conditions: 12 hyperresponsive dogs
Method: as §2
Hyper-responsiveness is described as the capacity of the lung to react (to increase lung resistance) to a non-specific external stimuli like metacholine or to allergens A hyper-responsive allergen-sensitized dog (asthmatic) will react to lower concentrations of metacholine compared to a non allergic dog. Similarly, improvement in lung hyper-responsiveness is shown by an increase in metacholine concentrations necessary to induce the same level of lung resistance.
Increasing concentrations of metacholine were administered with or without treatment with ASM-002 or Prednisone™ and lung resistance recorded.

C[N+]1(C)CCCN(c2ccccc2)CC1 [ASM-002, 1,1-dimethyl-4-phenylhomopiperazinium iodide]
ED50 [1]: 0.71 mg/kg | lung resistance induced by metacholine compared to untreated OVA-sensitized mice [2]: significant reduction (return to baseline levels) | TNF release ([3]; 40 μM, mean of 5 subjects): inhibits TNF release | EC50 ([3]; Monocyte, LPS-stimulated human blood monocytes, n=6, read-out: EC50, inhibition of TNF release): 3000 nM | LTC4 production ([4]; 80 μM, PAF, eosinophils of asthmatic patients, 6 patients, p=0.0007): significant inhibition | LTC4 ([4]; eosinophils pre-incubated 18 hours with analog, PAF stimulated, untreated 1725.80): 246.40 pg/mL | relaxing effect on pre-contracted mice tracheas [5]: relaxing effect | relaxing effect on pre-contracted dog bronchi [6]: relaxing effect | relaxing effect on pre-contracted human bronchi [7]: relaxing effect | cellular inflammation in the lungs of asthmatic dogs [8]: inhibits significantly | dogs with decreased lung resistance / improved hyper-responsiveness [9]: 7 out of 12

— patent US8557804B2, “Nicotinic receptor agonists for the treatment of inflammatory diseases” (priority 2002, dated 2013)
